Reference: ChEMBL document CHEMBL6078645, “Expanding the Solvent/Protein Region Occupation of the Non-Nucleoside Reverse Transcriptase Inhibitor Binding Pocket for Improved Broad-Spectrum Anti-HIV-1 Efficacy: from Rigid Phenyl-Diarylpyrimidines to Flexible Hydrophilic Piperidine-Diarylpyrimidines” (J Med Chem, 2024)
Several values for one entry are separate records, joined by “and”; a condition that tells them apart may be missing. Equal entries are not always repeated.

What was measured:
[1] = test system: Human immunodeficiency virus 1; test: Antiviral activity against HIV-1 harboring Y188L mutant infected in human MT4 cells assessed as protection against virus-induced cytopathic effect incubated for 5 days by MTT assay; assay type: functional, organism-based
[2] = test system: Human immunodeficiency virus 1; test: Antiviral activity against HIV-1 harboring RES056 mutant infected in human MT4 cells assessed as protection against virus-induced cytopathic effect incubated for 5 days by MTT assay; assay type: functional, organism-based
[3] = target: T1, Human immunodeficiency virus type 1 reverse transcriptase (Human immunodeficiency virus 1, UniProt Q72547); test: Inhibition of wildtype recombinant HIV-1 Reverse transcriptase incubated for 40 mins by spectrofluorometric analysis
[4] = (§1) Cytotoxicity against human MT4 cells assessed as reduction in cell viability incubated for 5 days by MTT assay; assay type: toxicity, cell-based; details: MT4 cells, time 5 day
[5] = test system: Human immunodeficiency virus 1; test: Antiviral activity against HIV-1 harboring F227L/V106A double mutant infected in human MT4 cells assessed as protection against virus-induced cytopathic effect incubated for 5 days by MTT assay; assay type: functional, organism-based
[6] = test system: Human immunodeficiency virus 1; test: Antiviral activity against wild type HIV-1 IIIB infected in human MT4 cells assessed as protection against virus-induced cytopathic effect incubated for 5 days by MTT assay; assay type: functional, organism-based; details: Human immunodeficiency virus 1, IIIB, MT4, 120 h
[7] = Selectivity index, ratio of CC50 for cytotoxicity against human MT4 cells assessed as reduction in cell viability to EC50 for antiviral activity against wild type HIV-1 IIIB infected in human MT4 cells assessed as protection against virus-induced cytopathic effect; assay type: toxicity, cell-based; details: MT4 cells, read-out: Ratio CC50/EC50
[8] = Solubility of compound in phosphate buffer at pH 7.4 incubated for 24 hrs by HPLC analysis; assay type: physicochemical
[9] = Solubility of compound in phosphate buffer at pH 7 incubated for 24 hrs by HPLC analysis; assay type: physicochemical
[10] = Solubility of compound in phosphate buffer at pH 2 incubated for 24 hrs by HPLC analysis; assay type: physicochemical
[11] = Solubility of compound incubated for 24 hrs by HPLC analysis; assay type: physicochemical
[12] = test system: Human immunodeficiency virus 1; test: Antiviral activity against HIV-1 harboring K103N mutant infected in human MT4 cells assessed as protection against virus-induced cytopathic effect incubated for 5 days by MTT assay; assay type: functional, organism-based; details: Human immunodeficiency virus 1, MT4, 120 h
[13] = test system: Human immunodeficiency virus 1; test: Antiviral activity against HIV-1 harboring E138K mutant infected in human MT4 cells assessed as protection against virus-induced cytopathic effect incubated for 5 days by MTT assay; assay type: functional, organism-based; details: Human immunodeficiency virus 1, MT4, 120 h
[14] = test system: Human immunodeficiency virus 1; test: Antiviral activity against HIV-1 harboring L100I mutant infected in human MT4 cells assessed as protection against virus-induced cytopathic effect incubated for 5 days by MTT assay; assay type: functional, organism-based; details: Human immunodeficiency virus 1, MT4, 120 h
[15] = test system: Human immunodeficiency virus 1; test: Antiviral activity against HIV-1 harboring Y181C mutant infected in human MT4 cells assessed as protection against virus-induced cytopathic effect incubated for 5 days by MTT assay; assay type: functional, organism-based; details: Human immunodeficiency virus 1, MT4, 120 h
[16] = target: T1, Human immunodeficiency virus type 1 reverse transcriptase; test: Inhibition of HIV-1 reverse transcriptase
MT4 = test: as §1; assay type: toxicity, cell-based; details: mt4, 120 h, 120 h, time 5 day
[17] = Human immunodeficiency virus 1, MT4, 120 h

Row | Compound | EC50 [1, 17] | EC50 [2, 17] | IC50 [3] | CC50 at 120 h [4] | EC50 [5, 17] | EC50 [6] | selectivity ratio [7] | solubility at 24 h [8] | solubility at 24 h [9] | solubility at 24 h [10] | solubility at 24 h [11] | EC50 [12] | EC50 [13] | EC50 [14] | EC50 [15] | EC50 [16] | EC50 ([1]; mt4) | EC50 ([2]; mt4) | CC50 (MT4) | EC50 ([5]; mt4)
1 | Cc1cc(-c2ccncc2)cc(C)c1Oc1nc(NC2CCN(Cc3cccc(C(N)=O)c3)CC2)ncc1CO | 101 nM | 883 nM | 188 nM | > 232000 nM | 98 nM | 10 nM | > 23800 | – | – | – | – | – | – | – | – | – | – | – | – | –
2 | Cc1cc(-c2ccncc2)cc(C)c1Oc1nc(NC2CCN(Cc3ccc(S(N)(=O)=O)cc3)CC2)ncc1CO | 177 nM | 329 nM | 192000 nM | > 218000 nM | 65 nM | 29 nM | > 7620 | – | – | – | – | – | – | – | – | – | – | – | – | –
3 | Cc1cc(-c2ccc(C#N)cc2)cc(C)c1Oc1nc(NC2CCN(Cc3ccc(S(N)(=O)=O)cc3)CC2)ncc1CO.Cl | – | – | – | – | – | – | – | < 1 µg/mL | < 1 µg/mL | > 56400 µg/mL | 5270 µg/mL | – | – | – | – | – | – | – | – | –
4 | CNS(=O)(=O)c1ccc(CN2CCC(Nc3ncc(CO)c(Oc4c(C)cc(-c5ccncc5)cc4C)n3)CC2)cc1 | 100 nM | 405 nM | 198 nM | > 212000 nM | 234 nM | 14 nM | > 14800 | – | – | – | – | – | – | – | – | – | – | – | – | –
5 | COCCNC(=O)c1ccc(CN2CCC(Nc3ncc(CO)c(Oc4c(C)cc(-c5ccncc5)cc4C)n3)CC2)cc1 | 46 nM | 58 nM | – | 110000 nM | 64 nM | 10 nM | 11200 | – | – | – | – | 5 nM | 50 nM | 11 nM | 34 nM | – | – | – | – | –
6 | Cc1cc(-c2ccncc2)cc(C)c1Oc1nc(NC2CCN(Cc3ccc(S(=O)(=O)N4CCC(O)CC4)cc3)CC2)ncc1CO | 226 nM | 446 nM | – | 17600 nM | 43 nM | 24 nM | 750 | – | – | – | – | – | – | – | – | – | – | – | – | –
7 | CNS(=O)(=O)c1ccc(CN2CCC(Nc3ncc(CO)c(Oc4c(C)cc(-c5ccc(C#N)cc5)cc4C)n3)CC2)cc1 | 31 nM | 66 nM | 497 nM | 6680 nM | 52 nM | – | 1190 | – | – | – | – | 10 nM | 30 nM | 8 nM | 19 nM | 6 nM | – | – | – | –
8 | Cc1cc(-c2ccc(C#N)cc2)cc(C)c1Oc1nc(NC2CCN(Cc3ccc(S(=O)(=O)N4CCC(O)CC4)cc3)CC2)ncc1CO | – | 169 nM | 595 nM | – | 54 nM | – | – | – | – | – | – | 9 nM | 38 nM | 22 nM | 39 nM | 8 nM and 9 nM | 125 nM and 56 nM | 307 nM | 3250 nM and 18400 nM | 51 nM
9 | CNC(=O)c1ccc(CN2CCC(Nc3ncc(CO)c(Oc4c(C)cc(-c5ccncc5)cc4C)n3)CC2)cc1 | 122 nM | 925 nM | 253 nM | > 226000 nM | 133 nM | 11 nM | > 20200 | – | – | – | – | – | – | – | – | – | – | – | – | –
